Test results from patent publication US4138485A, “Phenylalanine derivatives” (Kyowa Hakko Kogyo Kabushiki Kaisha, priority 1976, dated 1979).
Read-outs that look alike come from different tables or passages of the source.

Legend:
[1] = Acute toxicity in mice; details: mouse, in vivo
Description: (§1) (1) Acute toxicity and tonic convulsion in hind paw:
(§2) The acute toxicity and tonic convulsion occured by stimulus by hand touch were determined in the following manner to give the results shown in Table 2.
(a) Acute toxicity in mice:
38 Groups, each consisting of 5 mice (male dd-strain, weight -- 18 to 24 g), were used for the test and control groups. The compounds shown in Table 2 were administered orally or intraperitoneally to the mice. After one week, the survival ratio was measured.

[2] = Acute toxicity in rats; details: rat, in vivo
Description: as §1, §2
(b) Acute toxicity in rats:
28 Groups, each consisting of 5 rats (male Wistar strain, weight -- 200 g), were used for the test and control groups. The compounds shown in Table 2 were orally administered to the rats. After one week, the survival ratio was measured.

[3] = test system: hyperlipemia induced by Triton; test: Cholesterol-lowering activity on hyperlipemia induced by Triton in mice; type: in vivo, mice (male dd-strain); details: Mus musculus, read-out: Ratio of the reduction of cholesterol
Description: (2) Cholesterol-Lowering activity on hyperlipemia induced by Triton in mice:
38 Groups, each consisting of 9 mice (male dd-strain, weight -- 19 to 21 g), were used for the test and control groups. […] Immediately after the administration and also after 20 hours from the administration of Triton, the mice were orally administered with 100 mg/kg of the compound shown in Table 3. 43 hours after the administration of Triton, the blood samples were collected by decapitation and then the corpuscle was removed by centrifugation. Cholesterol in the serum was determined by Zurkowski's method modified by Shibata (color of the test solution was developed by using sulfoalicyclic acid, acetic acid and sulfuric acid and the optical density of the solution was determined at 620 mμ.

[4] = test system: Cholesterol in the serum; test: Cholesterol-lowering activity on normal rats of Wistar strain (serum cholesterol, liver weight); type: in vivo, rats (male Wistar strain); details: 0.3% in diet; for B - Ratio of decrease of liver weight: continuous administration for 4 days; for C - Ratio of decrease of cholesterol / D - Ratio of increase of liver weight: continuous administration for 14 days
Description: (3) Cholesteral-lowering activity on normal rats of Wistar strain:
(i) 22 Groups, each consisting of 5 rats (male Wistar strain, weight -- 150 to 180 g) were used for the test and control groups. After this, the blood samples were collected by decapitation and then the corpuscle was removed by centrifugation. Cholesterol in the serum was determined by Zurkowski's method modified by Shibata and also the liver was excised and weighed. The results are shown in Table 4 wherein the ratio of 100% denotes the amount of chloresterol and the weight of the liver of normal rats fed with powdery diet without the addition of the compound.

[5] = test system: Triglyceride, phospholipid and free fatty acid in the serum; test: Determination of triglyceride, phospholipid and free fatty acid in the serum of normal rats; type: in vivo, rats (Wistar strain); details: for A - Ratio of decrease of triglyceride / B - Ratio of decrease of phospholipid / C - Ratio of decrease of free fatty acid: continuous administration for 4 days; for lowering activity on lipids other than cholesterol (in words): normal rats, 4 days
Description: (ii) Determination of triglyceride, phospholipid and free fatty acid in the serum of normal rats of Wistar strain: Clofibrate and Compounds 1 and 2 were tested in a similar manner to that described in (i). Triglyceride, phospholipid and free fatty acid in the serum were determined in the following manner to give the results shown in Table 5. (a) Determination of triglyceride: Triglyceride was determined by acetylacetone method [Kazuo Matsumiya et al "Rinsho Byori", Vol. 18, page 383 (1970), Japan] in the following manner. Isopropyl alcohol was added to the test solution of the serum to extract triglyceride which was then saponified with potassium hydroxide to give glycerol. The glycerol was oxidized by using sodium salt of methaperiodic acid to convert it into formaldehyde. Color of the test solution was developed by acetylacetone and the optical density at 420 mμ was determined. (b) Determination of phospholipid: "Phospholipid Test Wako", a reagent available from Wako Junyaku K.K., Japan, was used for the determination of phospholipid in the following manner according to a similar manner to that described in "Rinsho Byori", Vol. 17, page 389 (1969), Japan, by Atsuo […] et al. Trichloroacetic acid was added to the serum to give precipitates of lipoprotein which were then added with sulfuric acid and potassium permanganate to form phosphoric acid. Color of the test solution was developed by ammonium molybdate and the optical density was determined at 660 mμ. (c) Determination of free fatty acid: Laurell's method [CLin. Chim. Acta. 16, 57 (1967)] was used for determination in the following manner. […] After shaking for 5 minutes, the solution was centrifuged. 5 Ml of the supernatant was put into another tube and was added with 2 ml of copper reagent. […] The optical density at 550 mμ was determined.

[6] = test system: hyperlipemia induced by Triton; test: Effect on hyperlipemia induced by Triton in rats: activity in the increasing phase; type: in vivo, rats (male Wistar strain); details: for activity in the developing phase (in words): Clofibrate, Compounds 1 and 2 compared with each other; for Cholesterol / Cholesterol, Ratio of decrease / Triglyceride / Triglyceride, Ratio of decrease: serum, increasing phase, 200 mg/kg oral, 20 hours
Description: (§3) (4) Effect on hyperlipemia induced by Triton in rats:
(i) Activity in the increasing phase:
(§4) 3 Groups, each consisting of 9 rats (male Wistar strain, weight -- 200 to 240 g) fasted for 24 hours were used for this test. Each rat was administered intravenously with 200 mg/kg of Triton (WR-1339), followed by oral administration of 200 mg/kg of the compounds shown in Table 6. After 20 hours from the administration, the blood samples were collected by decapitation. Cholesterol and triglyceride in the serum were determined in a similar manner to that used in (2, ii) to give the results shown in Table 6.

[7] = test system: hyperlipemia induced by Triton; test: Effect on hyperlipemia induced by Triton in rats: activity in the decreasing phase; type: in vivo, rats (male Wistar strain); details: for Cholesterol / Cholesterol, Ratio of decrease / Triglyceride / Triglyceride, Ratio of decrease: serum, decreasing phase, 200 mg/kg oral 25 hours after Triton, sampled at 30 hours; for activity in the decreasing phase (in words): compared with Clofibrate
Description: as §3, §4
(II) Activity in the decreasing phase:
Hyperlipemia occurred by administering Triton (WR-1339) in a similar manner to that in (i). After 25 hours, 200 mg/kg of the compounds were orally administered to the rats. After 30 hours from the injection of Triton, the blood samples were collected by decapitation.

[8] = test system: glycerol induced hyperlipemia; test: Lipid lowering effects on glycerol induced hyperlipemia in rats; type: in vivo, rats (male Wistar strain); details: 0.25% in diet; for Cholesterol / Cholesterol, Ratio of decrease / Triglyceride / Triglyceride, Ratio of decrease: serum, 15% glycerol in water
Description: (5) Lipid lowering effects on glycerol induced hyperlipemia in rats: The test was carried out in a similar method to that by […] et al [Life Science, 3, 1021 (1964)] . A group consisting of 10 rats (male Wistar strain, weight - 190 to 210 g) was used for each of the test and control groups. Hyperlipemia occurred by feeding the rats ad libitum with water containing 15% (by volume) of glycerol. […] After this, the blood samples were collected by decapitation and the serum was separated by centrifugation.

[9] = test system: cholesterol and triglyceride in the serum; test: Lipid lowering activity in cynomolgus monkeys; type: in vivo, cynomolgus monkeys (male, born in Malaysia); details: 100 mg/kg/day oral, 10 days; for Decrease Ratio of Cholesterol / Decrease Ratio of Triglyceride: average of 3 times cross-over
Description: (6) Lipid lowering activity in cynomolgus monkeys:
6 cynomolgus monkeys (male, born in Malaysia, weight -- 2.5 to 3.9 kg) were used for this test. All monkies were breeded in individual cages at a temperature from 23° to 25° C. and fed with a solid diet for monkey (available from Oriental Yeast K.K., Japan) and sweet potatoes every morning and with apples and bananas from time to time. The monkeys were divided into 3 groups, each consisting of 2 monkeys, to orally and compulsively administer the test compound in an amount of 100 mg/kg/day once in every morning for 10 days. At 11 days after the first administration, before feeding the diet in early morning blood samples were collected from the saphenae of the monkeys to determine cholesterol and triglyceride in a similar manner to that described above. The ratio of lowering cholesterol (RCL) or triglyceride (RLT) was calculated by the following formula. [formula] wherein A is the average amount of the cholesterol or triglyceride in the serum before administration, and B is the corresponding amont after administration for 10 days.
After an interval of 5 weeks, another compound was administered to determine cholesterol or triglyceride in a similar manner to that described above. After a further interval of 5 weeks, a similar procedure was repeated by using another compound to determine cholesterol or triglyceride.

[10] = ip, intraperitoneal administration, after one week, read-out: Acute Toxicity (LD50), B
[11] = oral administration, after one week, read-out: Acute Toxicity (LD50), A
[12] = oral administration, after one week, read-out: Acute Toxicity (LD50), C

| SMILES | B - Ratio of decrease of liver weight [4] [%] | C - Ratio of decrease of cholesterol [4] [%] | D - Ratio of increase of liver weight [4] [%] | A - Ratio of decrease of triglyceride [5] [%] | B - Ratio of decrease of phospholipid [5] [%] | C - Ratio of decrease of free fatty acid [5] [%] | activity in the developing phase (in words) [6] | Cholesterol [6] [mg/dL] | Cholesterol, Ratio of decrease [6] [%] | Triglyceride [6] [mg/dL] | Triglyceride, Ratio of decrease [6] [%] | Cholesterol [7] [mg/dL] | Cholesterol, Ratio of decrease [7] [%] | Triglyceride [7] [mg/dL] | Triglyceride, Ratio of decrease [7] [%] | activity on lowering triglyceride and cholesterol (in words) [8] | Cholesterol [8] [mg/dL] | LD50 at 168 h [1, 11] [mg/kg] | LD50 at 168 h [2, 12] [mg/kg] | inhibition in vivo at 100 mg/kg ([3]; po, 43 h) [%] | other results |
| --- | --- | --- | --- | --- | --- | --- | --- | --- | --- | --- | --- | --- | --- | --- | --- | --- | --- | --- | --- | --- | --- |
| CCOC(=O)C(C)(C)Oc1ccc(Cl)cc1 [Clofibrate, reference compound] | 40.1 | 32.3 | 60.1 | 50.1 | 25.0 | 26.7 | substantially equal | 203 | 20.8 | 856 | 36.0 | 138 | 7.5 | 401 | -15.6 | have an activity on lowering triglyceride and cholesterol | 39.1 |  |  |  | LD50 at 168 h ([1]; ip): 1620 mg/kg; LD50 at 168 h ([1]; po): 2100 mg/kg; LD50 at 168 h ([2]; po): > 200 mg/kg; inhibition in vivo at 100 mg/kg ([3]; 100 mg/kg oral, twice (0 and 20 hours after Triton 600 mg/kg i.v.), serum at 43 hours): 40%; Cholesterol, Ratio of decrease [8]: 30.6%; Triglyceride [8]: 129 mg/dL; Triglyceride, Ratio of decrease [8]: 74.0%; cholesterol-lowering activity (in words) [9]: have a cholesterol-lowering activity; Decrease Ratio of Cholesterol [9]: 6.7%; Decrease Ratio of Triglyceride [9]: 9.0% |
| Cc1ccc(CSC(=O)N[C@@H](Cc2ccccc2)C(=O)O)cc1 [Compound 1, N-(4-methylbenzylthiocarbonyl)-L-phenylalanine] | 14.8 | 26.1 | 33.1 | 42.0 | 13.8 | 27.0 | substantially equal | 198 | 22.7 | 940 | 29.7 | 103 | 30.7 | 141 | 59.4 | have an activity on lowering triglyceride and cholesterol | 44.5 | > 4000 | > 200 | 55 | LD50 at 168 h [1, 10]: > 100 mg/kg; lowering activity on lipids other than cholesterol (in words) [5]: have a lowering activity on lipids other than cholesterol; activity in the decreasing phase (in words) [7]: superior to that of Clofibrate; Cholesterol, Ratio of decrease [8]: 21.0%; Triglyceride [8]: 148 mg/dL; Triglyceride, Ratio of decrease [8]: 70.0%; cholesterol-lowering activity (in words) [9]: have a cholesterol-lowering activity; Decrease Ratio of Cholesterol [9]: 12.2%; Decrease Ratio of Triglyceride [9]: 10.8% |
| COC(=O)[C@H](Cc1ccccc1)NC(=O)SCc1ccc(C)cc1 [Compound 2, N-(4-methylbenzylthiocarbonyl)-L-phenylalanine methylester] | 8.2 | 17.5 | 3.9 | 2.1 | 10.9 | 21.8 | substantially equal | 202 | 21.3 | 729 | 45.5 | 116 | 22.2 | 205 | 40.9 | have an activity on lowering triglyceride and cholesterol | 47.5 | > 4000 | > 900 | 38 | LD50 at 168 h [1, 10]: > 100 mg/kg; lowering activity on lipids other than cholesterol (in words) [5]: have a lowering activity on lipids other than cholesterol; activity in the decreasing phase (in words) [7]: superior to that of Clofibrate; Cholesterol, Ratio of decrease [8]: 15.7%; Triglyceride [8]: 261 mg/dL; Triglyceride, Ratio of decrease [8]: 41.3%; cholesterol-lowering activity (in words) [9]: have a cholesterol-lowering activity; Decrease Ratio of Cholesterol [9]: 9.7%; Decrease Ratio of Triglyceride [9]: -7.3% |
| COC(=O)[C@H](Cc1ccccc1)NC(=O)SCc1c(C)c(C)c(C)c(C)c1C [Compound 30, N-(2,3,4,5,6-pentamethylbenzylthiocarbonyl)-L-phenylalanine methylester] | 11.0 |  |  |  |  |  |  |  |  |  |  |  |  |  |  |  |  | > 1000 | > 100 | 68 |  |
| O=C(N[C@@H](Cc1ccccc1)C(=O)O)SCc1cccc2ccccc12 [Compound 31, N-(α-naphthylmethylthiocarbonyl)-L-phenylalanine] | 24.4 |  |  |  |  |  |  |  |  |  |  |  |  |  |  |  |  | > 1000 | > 100 | 74 |  |
| COC(=O)[C@H](Cc1ccccc1)NC(=O)SCc1cccc2ccccc12 [Compound 32] | 12.4 |  |  |  |  |  |  |  |  |  |  |  |  |  |  |  |  | > 1000 | > 100 | 56 |  |
